One block for each compound: values may come before it.
Columns and labels:
Conditions in all cases: binder
[1] = target: CaMK1g (Homo sapiens, UniProt Q96NX5)
[2] = target: CaMK2d (Homo sapiens, UniProt Q13557)
[3] = target: T1, DRAK2 (Homo sapiens, UniProt O94768)
T1 sequence (O94768 1-372): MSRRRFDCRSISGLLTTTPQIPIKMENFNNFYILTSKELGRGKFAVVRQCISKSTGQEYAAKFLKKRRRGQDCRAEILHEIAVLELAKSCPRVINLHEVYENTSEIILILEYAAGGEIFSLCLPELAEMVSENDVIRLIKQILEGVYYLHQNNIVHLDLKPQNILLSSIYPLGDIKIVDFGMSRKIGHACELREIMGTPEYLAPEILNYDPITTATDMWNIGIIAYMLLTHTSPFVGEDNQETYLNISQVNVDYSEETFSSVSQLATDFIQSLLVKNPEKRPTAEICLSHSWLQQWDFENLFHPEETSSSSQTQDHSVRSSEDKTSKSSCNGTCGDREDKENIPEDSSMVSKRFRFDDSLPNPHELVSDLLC

[4] = target: Erk2 (Homo sapiens, UniProt P28482)
Sequence of Erk2 (P28482 whole entry): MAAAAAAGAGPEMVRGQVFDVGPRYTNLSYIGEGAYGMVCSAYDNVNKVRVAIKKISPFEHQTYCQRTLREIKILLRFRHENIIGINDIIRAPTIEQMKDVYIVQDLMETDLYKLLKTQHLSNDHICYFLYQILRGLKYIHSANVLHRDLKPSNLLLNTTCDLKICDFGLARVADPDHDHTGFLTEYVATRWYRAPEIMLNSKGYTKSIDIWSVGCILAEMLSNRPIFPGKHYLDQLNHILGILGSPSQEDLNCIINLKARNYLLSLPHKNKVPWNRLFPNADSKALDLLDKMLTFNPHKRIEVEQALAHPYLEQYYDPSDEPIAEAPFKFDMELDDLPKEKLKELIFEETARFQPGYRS

[5] = target: HIPK2 (Homo sapiens, UniProt Q9H2X6)
Sequence of HIPK2 (Q9H2X6 whole entry): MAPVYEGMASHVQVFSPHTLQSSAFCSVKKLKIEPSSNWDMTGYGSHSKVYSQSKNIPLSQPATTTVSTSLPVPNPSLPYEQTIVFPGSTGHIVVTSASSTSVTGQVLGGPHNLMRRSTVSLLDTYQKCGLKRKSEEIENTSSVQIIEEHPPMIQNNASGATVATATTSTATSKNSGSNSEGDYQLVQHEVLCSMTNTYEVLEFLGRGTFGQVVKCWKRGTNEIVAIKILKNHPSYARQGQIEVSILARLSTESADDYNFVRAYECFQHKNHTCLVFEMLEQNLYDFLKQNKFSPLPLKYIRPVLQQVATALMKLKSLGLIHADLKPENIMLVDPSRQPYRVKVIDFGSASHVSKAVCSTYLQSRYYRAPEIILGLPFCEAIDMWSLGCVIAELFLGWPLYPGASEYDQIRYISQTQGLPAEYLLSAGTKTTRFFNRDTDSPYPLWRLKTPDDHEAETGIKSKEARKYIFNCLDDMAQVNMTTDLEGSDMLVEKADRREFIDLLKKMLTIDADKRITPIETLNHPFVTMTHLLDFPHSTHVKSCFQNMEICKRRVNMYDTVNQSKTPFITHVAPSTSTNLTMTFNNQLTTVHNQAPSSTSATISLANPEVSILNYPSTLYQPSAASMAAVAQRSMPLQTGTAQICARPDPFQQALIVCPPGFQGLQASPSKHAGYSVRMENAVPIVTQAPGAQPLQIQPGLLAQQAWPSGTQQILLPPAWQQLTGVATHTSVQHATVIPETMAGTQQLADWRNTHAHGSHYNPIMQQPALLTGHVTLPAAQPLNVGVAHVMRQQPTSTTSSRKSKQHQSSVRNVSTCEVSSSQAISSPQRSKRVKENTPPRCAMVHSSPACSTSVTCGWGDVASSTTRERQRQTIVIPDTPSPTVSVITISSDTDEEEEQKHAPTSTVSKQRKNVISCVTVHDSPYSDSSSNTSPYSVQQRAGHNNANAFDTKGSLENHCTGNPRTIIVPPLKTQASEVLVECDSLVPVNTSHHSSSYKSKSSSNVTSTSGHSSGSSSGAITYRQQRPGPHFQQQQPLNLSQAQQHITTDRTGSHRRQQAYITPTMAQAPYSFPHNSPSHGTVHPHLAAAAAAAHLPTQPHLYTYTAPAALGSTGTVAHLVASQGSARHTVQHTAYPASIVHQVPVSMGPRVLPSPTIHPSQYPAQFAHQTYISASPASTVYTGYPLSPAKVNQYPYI

[6] = target: T2, Haspin (Homo sapiens, UniProt Q8TF76)
T2 sequence (Q8TF76 1-798): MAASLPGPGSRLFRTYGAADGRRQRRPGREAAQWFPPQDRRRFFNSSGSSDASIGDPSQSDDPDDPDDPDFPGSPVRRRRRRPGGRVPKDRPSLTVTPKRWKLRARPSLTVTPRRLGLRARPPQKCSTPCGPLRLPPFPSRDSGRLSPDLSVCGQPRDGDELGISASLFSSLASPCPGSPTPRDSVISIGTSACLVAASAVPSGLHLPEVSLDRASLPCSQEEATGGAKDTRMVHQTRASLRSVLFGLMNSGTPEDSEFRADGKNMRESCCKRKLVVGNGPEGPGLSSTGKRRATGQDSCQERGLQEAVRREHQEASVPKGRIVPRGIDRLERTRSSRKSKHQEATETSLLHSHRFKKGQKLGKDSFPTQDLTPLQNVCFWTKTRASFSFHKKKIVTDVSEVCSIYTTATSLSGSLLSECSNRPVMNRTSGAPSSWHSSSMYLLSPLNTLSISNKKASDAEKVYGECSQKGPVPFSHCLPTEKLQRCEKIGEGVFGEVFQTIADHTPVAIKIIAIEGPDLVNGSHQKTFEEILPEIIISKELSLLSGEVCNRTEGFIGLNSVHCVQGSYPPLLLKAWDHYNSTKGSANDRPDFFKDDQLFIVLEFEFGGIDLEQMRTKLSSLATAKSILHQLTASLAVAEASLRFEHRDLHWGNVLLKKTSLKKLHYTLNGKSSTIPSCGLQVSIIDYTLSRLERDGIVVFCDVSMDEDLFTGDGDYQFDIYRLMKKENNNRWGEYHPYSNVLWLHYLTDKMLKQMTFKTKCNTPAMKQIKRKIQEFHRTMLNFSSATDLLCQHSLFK

[7] = target: LOK (Homo sapiens, UniProt O94804)
Sequence of LOK (O94804 whole entry): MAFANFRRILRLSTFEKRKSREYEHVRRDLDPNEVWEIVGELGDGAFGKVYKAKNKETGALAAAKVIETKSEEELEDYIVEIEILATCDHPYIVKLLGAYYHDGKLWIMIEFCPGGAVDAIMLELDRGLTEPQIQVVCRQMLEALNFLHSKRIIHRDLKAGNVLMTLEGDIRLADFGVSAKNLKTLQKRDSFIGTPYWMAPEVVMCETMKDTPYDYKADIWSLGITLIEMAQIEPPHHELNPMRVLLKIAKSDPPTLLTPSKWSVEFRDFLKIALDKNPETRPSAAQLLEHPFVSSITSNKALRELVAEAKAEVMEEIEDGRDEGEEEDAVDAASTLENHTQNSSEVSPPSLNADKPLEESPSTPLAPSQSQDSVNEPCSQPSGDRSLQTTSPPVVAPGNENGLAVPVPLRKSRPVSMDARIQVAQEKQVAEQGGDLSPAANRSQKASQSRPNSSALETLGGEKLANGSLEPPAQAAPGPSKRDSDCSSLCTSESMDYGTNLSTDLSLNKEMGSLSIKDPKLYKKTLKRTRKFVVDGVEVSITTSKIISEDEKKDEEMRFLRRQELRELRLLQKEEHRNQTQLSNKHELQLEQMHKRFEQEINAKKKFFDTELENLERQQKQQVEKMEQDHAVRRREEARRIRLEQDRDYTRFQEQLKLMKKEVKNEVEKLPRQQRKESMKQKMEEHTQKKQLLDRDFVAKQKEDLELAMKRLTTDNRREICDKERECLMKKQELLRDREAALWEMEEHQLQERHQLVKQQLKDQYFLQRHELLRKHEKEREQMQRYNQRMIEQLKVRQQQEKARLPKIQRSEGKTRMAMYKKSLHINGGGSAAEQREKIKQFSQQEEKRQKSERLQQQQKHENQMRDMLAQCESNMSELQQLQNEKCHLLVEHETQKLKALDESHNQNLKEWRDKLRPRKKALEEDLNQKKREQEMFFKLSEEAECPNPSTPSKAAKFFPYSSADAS

[8] = target: MARK3 (Homo sapiens, UniProt P27448)
Sequence of MARK3 (P27448 whole entry): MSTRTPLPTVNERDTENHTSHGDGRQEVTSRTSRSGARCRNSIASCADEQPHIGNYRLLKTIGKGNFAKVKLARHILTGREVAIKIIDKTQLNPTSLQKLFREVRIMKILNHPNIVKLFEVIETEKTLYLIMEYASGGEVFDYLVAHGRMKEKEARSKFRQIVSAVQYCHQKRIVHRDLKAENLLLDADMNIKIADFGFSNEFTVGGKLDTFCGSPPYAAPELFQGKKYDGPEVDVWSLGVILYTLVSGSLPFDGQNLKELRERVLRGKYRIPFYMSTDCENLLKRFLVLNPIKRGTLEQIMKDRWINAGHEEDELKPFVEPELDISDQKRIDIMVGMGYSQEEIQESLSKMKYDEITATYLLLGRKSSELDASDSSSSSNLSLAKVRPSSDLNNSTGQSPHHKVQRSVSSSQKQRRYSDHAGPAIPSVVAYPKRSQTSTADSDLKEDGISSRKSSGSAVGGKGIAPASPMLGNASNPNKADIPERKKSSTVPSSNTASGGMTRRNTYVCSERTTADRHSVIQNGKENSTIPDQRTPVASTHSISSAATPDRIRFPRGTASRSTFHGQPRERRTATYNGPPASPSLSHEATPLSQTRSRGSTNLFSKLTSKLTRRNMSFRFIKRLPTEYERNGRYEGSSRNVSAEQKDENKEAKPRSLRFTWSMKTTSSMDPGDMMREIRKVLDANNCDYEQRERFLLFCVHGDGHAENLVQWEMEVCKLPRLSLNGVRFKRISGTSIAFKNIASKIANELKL

[9] = target: T3, NQO2A (Homo sapiens, UniProt P16083)
T3 sequence (P16083 1-231): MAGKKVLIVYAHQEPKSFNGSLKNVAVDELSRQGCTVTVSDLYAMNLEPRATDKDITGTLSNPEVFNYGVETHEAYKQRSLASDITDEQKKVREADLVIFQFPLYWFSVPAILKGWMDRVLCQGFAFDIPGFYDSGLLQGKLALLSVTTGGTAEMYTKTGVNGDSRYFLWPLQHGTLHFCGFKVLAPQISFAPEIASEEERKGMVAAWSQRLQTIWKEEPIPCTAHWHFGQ

Sequence of CaMK1g (Q96NX5 whole entry): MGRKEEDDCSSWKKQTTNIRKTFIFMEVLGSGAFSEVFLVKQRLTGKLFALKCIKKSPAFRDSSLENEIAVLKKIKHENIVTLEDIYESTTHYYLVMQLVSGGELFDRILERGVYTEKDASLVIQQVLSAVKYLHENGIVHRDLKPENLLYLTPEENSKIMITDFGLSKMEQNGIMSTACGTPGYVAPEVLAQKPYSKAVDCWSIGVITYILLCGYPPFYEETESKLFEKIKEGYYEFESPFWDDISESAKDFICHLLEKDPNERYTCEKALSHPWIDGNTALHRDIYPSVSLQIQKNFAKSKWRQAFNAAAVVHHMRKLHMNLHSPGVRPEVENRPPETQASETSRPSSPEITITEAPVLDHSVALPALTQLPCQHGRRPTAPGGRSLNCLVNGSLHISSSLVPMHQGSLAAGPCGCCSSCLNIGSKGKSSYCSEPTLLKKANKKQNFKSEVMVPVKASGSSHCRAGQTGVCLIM
Sequence of CaMK2d (Q13557 whole entry): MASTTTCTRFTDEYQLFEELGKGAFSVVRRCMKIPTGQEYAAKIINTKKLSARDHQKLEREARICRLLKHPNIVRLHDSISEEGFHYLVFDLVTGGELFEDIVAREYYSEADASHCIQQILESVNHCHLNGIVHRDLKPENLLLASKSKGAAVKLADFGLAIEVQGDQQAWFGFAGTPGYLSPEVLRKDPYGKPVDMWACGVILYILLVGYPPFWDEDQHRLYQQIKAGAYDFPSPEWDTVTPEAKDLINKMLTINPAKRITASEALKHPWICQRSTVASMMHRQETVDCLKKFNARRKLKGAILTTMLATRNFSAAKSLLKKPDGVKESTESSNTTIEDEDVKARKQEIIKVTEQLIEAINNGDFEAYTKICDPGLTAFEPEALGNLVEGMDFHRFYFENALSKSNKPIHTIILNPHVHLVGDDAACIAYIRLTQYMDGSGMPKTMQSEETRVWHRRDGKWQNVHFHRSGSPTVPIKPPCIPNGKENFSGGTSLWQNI

- ΔTm MR30 (27) [1]: 3.6 °C
- ΔTm MR30 (27) [2]: -0.5 °C
- ΔTm MR30 (27) [3]: 0.8 °C
- ΔTm MR30 (27) [4]: 0.4 °C
- ΔTm MR30 (27) [5]: 0.0 °C
- ΔTm MR30 (27) [6]: -0.7 °C
- ΔTm MR30 (27) [7]: -0.6 °C
- ΔTm MR30 (27) [8]: 4.7 °C
- ΔTm MR30 (27) [9]: 0.5 °C
SMILES: Cc1cccc(-c2ccc(-c3cc4cnc(NCCCN5CCCC5=O)nc4n(CCCCN)c3=O)c(Cl)c2)n1 [compound 27, MR30]

- ΔTm 28 [1]: 5.7 °C
- ΔTm 28 [2]: -0.4 °C
- ΔTm 28 [3]: 8.4 °C
- ΔTm 28 [4]: 0.7 °C
- ΔTm 28 [5]: -0.5 °C
- ΔTm 28 [6]: -1.3 °C
- ΔTm 28 [7]: -0.7 °C
- ΔTm 28 [8]: 3.8 °C
- ΔTm 28 [9]: -0.7 °C
SMILES: Cc1cccc(-c2ccc(-c3cc4cnc(Nc5cc(C(F)(F)F)ccc5C)nc4n(CCCCN)c3=O)c(Cl)c2)n1 [compound 28, 8-(4-Aminobutyl)-6-(2-chloro-4-(6-methylpyridin-2-yl)phenyl)-2-((2-methyl-5-(trifluoromethyl)phenyl)amino)pyrido[2,3-d]pyrimidin-7(8H)-one]

- ΔTm 29 [1]: 5.0 °C
- ΔTm 29 [2]: -0.1 °C
- ΔTm 29 [3]: 4.6 °C
- ΔTm 29 [4]: -0.4 °C
- ΔTm 29 [5]: 0.6 °C
- ΔTm 29 [6]: -1.2 °C
- ΔTm 29 [7]: -0.4 °C
- ΔTm 29 [8]: 5.8 °C
- ΔTm 29 [9]: 0.3 °C
SMILES: Cc1cccc(-c2ccc(-c3cc4cnc(NCCCN5CCNCC5)nc4n(CCCCN)c3=O)c(Cl)c2)n1 [compound 29, 8-(4-Aminobutyl)-6-(2-chloro-4-(6-methylpyridin-2-yl)phenyl)-2-((3-(piperazin-1-yl)propyl)amino)pyrido[2,3-d]pyrimidin-7(8H)-one]

- ΔTm 30 [1]: 7.5 °C
- ΔTm 30 [2]: 0.1 °C
- ΔTm 30 [3]: 12.3 °C
- ΔTm 30 [4]: 3.5 °C
- ΔTm 30 [5]: 2.6 °C
- ΔTm 30 [6]: 0.4 °C
- ΔTm 30 [7]: -0.4 °C
- ΔTm 30 [8]: 11.6 °C
- ΔTm 30 [9]: -0.2 °C
SMILES: Cc1cccc(-c2ccc(-c3cc4cnc(Nc5ccc(CCCO)cc5)nc4n(CCCCN)c3=O)c(Cl)c2)n1 [compound 30, 8-(4-Aminobutyl)-6-(2-chloro-4-(6-methylpyridin-2-yl)phenyl)-2-((4-(3-hydroxypropyl)phenyl)amino)pyrido[2,3-d]pyrimidin-7(8H)-one]

- ΔTm 31 [1]: 5.5 °C
- ΔTm 31 [2]: -0.1 °C
- ΔTm 31 [3]: 11.7 °C
- ΔTm 31 [4]: 1.3 °C
- ΔTm 31 [5]: 2.6 °C
- ΔTm 31 [6]: -0.4 °C
- ΔTm 31 [7]: -0.4 °C
- ΔTm 31 [8]: 10.9 °C
- ΔTm 31 [9]: -0.3 °C
SMILES: Cc1cccc(-c2ccc(-c3cc4cnc(Nc5ccc(O)cc5)nc4n(CCCCN)c3=O)c(Cl)c2)n1 [compound 31, 8-(4-Aminobutyl)-6-(2-chloro-4-(6-methylpyridin-2-yl)phenyl)-2-((4-hydroxyphenyl)amino) pyrido[2,3-d]pyrimidin-7(8H)-one]

- ΔTm 32 [1]: 6.4 °C
- ΔTm 32 [2]: 0.0 °C
- ΔTm 32 [3]: 12.2 °C
- ΔTm 32 [4]: 1.9 °C
- ΔTm 32 [5]: 2.6 °C
- ΔTm 32 [6]: -1.5 °C
- ΔTm 32 [7]: -0.2 °C
- ΔTm 32 [8]: 10.9 °C
- ΔTm 32 [9]: -0.2 °C
SMILES: Cc1cccc(-c2ccc(-c3cc4cnc(Nc5ccc(C)c(O)c5)nc4n(CCCCN)c3=O)c(Cl)c2)n1 [compound 32, 8-(4-Aminobutyl)-6-(2-chloro-4-(6-methylpyridin-2-yl)phenyl)-2-((3-hydroxy-4-methylphenyl)amino)pyrido[2,3-d]pyrimidin-7(8H)-one]
